From patent publication US11999805B1, “Peptide inhibitors of CRISPR-Cas9” (priority 2020, dated 2024)
“Also recorded” adds a separate entry of the source. Like-named read-outs stand apart in the source and are kept apart here. No end group written: not given here.

Columns and labels:
[1] = target: T1, SauCas9 (Staphylococcus aureus, UniProt J7RUA5); assay: HT FRET-based Cas9 cleavage activity assay, SauCas9; assay type: biochemical, S. aureus
T1 construct: made in house; host or cells: E. coli BL21(star)DE3
Procedure: (§1) To evaluate the ability of identified peptides to inhibit other Cas9 variants, SauCas9 and CjeCas9 cleavage assays were used to quantitatively measure changes in activity. […] The inhibition was measured as relative fluorescent value to Cas9 without peptides (% activity) of CjeCas9 (Top), SauCas9 (middle), SpyCas9 (bottom) by FRET assay with the indicated concentration of peptides. Data are the average ±SD of eleven replicate wells from three technical replicates.
(§2) For the 11 original peptides reactions (10 μL) were set up in Cas9 reaction buffer [20 mM Tris-HCl, pH 7.5, 100 mM NaCl, 5 mM MgCl2, 0.1 mM EDTA] containing 50 nM annealed DNA substrate, 1.5 μM sgRNA, and 0.5 μM Cas9 in the wells of a black low volume 384-well plate. The reactions were incubated for 1 hour at ambient temperature with the indicated concentration of peptide; then, 10 μL, of 8 M Guanidine-HCl was added to quench the reaction. The plates were covered with an aluminum seal and incubated at 75° C. for 10 minutes and cooled down to RT before reading.
(§3) The % inhibition was determined by subtracting normalized relative fluorescent value to Cas9 without peptides (% activity) from 100% cleavage activity of CjeCas9, SauCas9, SpyCas9 by FRET assay. Data are the average ±SD of eleven replicate wells from three technical replicates at the indicated concentration of peptides.
(§4) FIGS. 12A, 12B, and 12C show graphs of measurements and fitted curves of concentration dependent inhibition of mutated peptides against Cas9 variants. The inhibition was measured as relative fluorescent value to Cas9 without peptides (% activity) of CjeCas9 (line with squares), SauCas9 (line with diamonds), SpyCas9 (line with triangles) by FRET assay with the indicated concentration of peptides and compared to original peptides (line with circles). Data are the average ±SD of eleven replicate wells from three technical replicates.

[2] = target: T2, SpyCas9 (Streptococcus pyogenes serotype M1, UniProt Q99ZW2); assay type: biochemical, S. pyogenes; details: for IC50: read-out: SpyCas9 IC50, FRET cleavage assay, concentration curves, 0.5 μM Cas9, 50 nM DNA substrate
Procedure: To determine whether synthetic peptides would inhibit Cas9 cleavage activity, 200 peptide sequences were selected for chemical synthesis based on the following criteria: (1) peptides enriched after independent panning on RNP immobilized on both the Monomeric Avidin and NeutrAvidin columns, (2) Higher Boman index (>2.3), the computed potential protein-protein interaction for a given amino-acids sequence (3) a predicted instability index below 50. Theses peptides were screened at 200 μM for inhibition of Cas9 cleavage activity using the recently developed HT FRET-based assay using a dual-quencher substrate with low background and high sensitivity. See Seamon K J, Light Y K, Saada E A, Schoeniger J S, Harmon B. 2018. Versatile High-Throughput Fluorescence Assay for Monitoring Cas9 Activity. Analytical Chemistry 90:6913-6921. This assay specifically measures DNA substrate cleavage, and is able to differentiate between cleavage of a single strand of DNA and cleavage of both DNA strands.
Reactions (10 μL tubes) were set up in Cas9 reaction buffer (20 mM Tris-HCl, pH 7.5, 100 mM NaCl, 5 mM MgCl2, 0.1 mM EDTA) containing 50 nM annealed DNA substrate, 1.5 μM sgRNA, and 500 nM Cas9 in the wells of a black low volume 384-well plate. The reactions were incubated for 1 hour at ambient temperature; then, 10 μL of 8 M Gdn-HCl was added to quench the reaction before the plates were covered with an aluminum seal and incubated at 80° C. for 10 minutes. The fluorescence was read in a Tecan Infinite M1000 or SPARK plate spectrofluorometer (Tecan).
The peptides were diluted 2-fold from 200 to 12.5 μM and incubated for 1 hour with 500 nM SpyCas9, gRNA prior to addition of 50 nM FRET DNA substrate for 1 hour. […] Data are the average ±SD of three replicate wells.
as §2, §3, §4

[3] = target: T3, CjeCas9 (Campylobacter jejuni subsp. jejuni serotype O:2, UniProt Q0P897); assay: HT FRET-based Cas9 cleavage activity assay, CjeCas9; assay type: biochemical, C. jejuni
T3 construct: made in house; host or cells: E. coli BL21(star)DE3
Procedure: as §1, §2, §3, §4

[4] = target: T2, SpyCas9; assay: Beacon DNA binding assay (Cas9 RNP binding to DNA substrate); parameters: species or system S. pyogenes; details: for binding of SpyCas9 RNP to DNA substrate (beacon fluorescence): peptide 40 μM, SpyCas9 500 nM, DNA substrate 50 nM
Procedure: To determine the mechanism of action of these peptide inhibitors, a binding assay was performed to determine if inhibitors are blocking Cas9 RNP binding to the DNA substrate. The beacon DNA binding assay was adapted and performed as described in Mekler V, Minakhin L, Semenova E, Kuznedelov K, Severinov K. 2016. Kinetics of the CRISPR-Cas9 effector complex assembly and the role of 3′-terminal segment of guide RNA. Nucleic Acids Res 44:2837-45. DNA probes were prepared from unmodified and chromophore-labeled DNA oligonucleotides synthesized by Integrated DNA Technologies. Equimolar amounts of synthetic complementary strands were mixed in a buffer containing 40 mM Tris, pH 7.9, 100 mM NaCl; heated for 2 min at 90° C. and slowly cooled to 20° C. The PAM-distal ends of the beacon target and non-target strands were labeled with fluorescein and Iowa Black® FQ, respectively. Both beacons mimic native target DNA and bind Cas9/sgRNA. The fluorescent signal is increased when Cas9 binds the DNA substrate and a helix forms with the target substrate strand and gRNA resulting in dissociation of oligo 3, leading to increase in fluorescent signal.
Data are the average ±SD of three replicate wells.

T2 sequence (Q99ZW2 whole entry): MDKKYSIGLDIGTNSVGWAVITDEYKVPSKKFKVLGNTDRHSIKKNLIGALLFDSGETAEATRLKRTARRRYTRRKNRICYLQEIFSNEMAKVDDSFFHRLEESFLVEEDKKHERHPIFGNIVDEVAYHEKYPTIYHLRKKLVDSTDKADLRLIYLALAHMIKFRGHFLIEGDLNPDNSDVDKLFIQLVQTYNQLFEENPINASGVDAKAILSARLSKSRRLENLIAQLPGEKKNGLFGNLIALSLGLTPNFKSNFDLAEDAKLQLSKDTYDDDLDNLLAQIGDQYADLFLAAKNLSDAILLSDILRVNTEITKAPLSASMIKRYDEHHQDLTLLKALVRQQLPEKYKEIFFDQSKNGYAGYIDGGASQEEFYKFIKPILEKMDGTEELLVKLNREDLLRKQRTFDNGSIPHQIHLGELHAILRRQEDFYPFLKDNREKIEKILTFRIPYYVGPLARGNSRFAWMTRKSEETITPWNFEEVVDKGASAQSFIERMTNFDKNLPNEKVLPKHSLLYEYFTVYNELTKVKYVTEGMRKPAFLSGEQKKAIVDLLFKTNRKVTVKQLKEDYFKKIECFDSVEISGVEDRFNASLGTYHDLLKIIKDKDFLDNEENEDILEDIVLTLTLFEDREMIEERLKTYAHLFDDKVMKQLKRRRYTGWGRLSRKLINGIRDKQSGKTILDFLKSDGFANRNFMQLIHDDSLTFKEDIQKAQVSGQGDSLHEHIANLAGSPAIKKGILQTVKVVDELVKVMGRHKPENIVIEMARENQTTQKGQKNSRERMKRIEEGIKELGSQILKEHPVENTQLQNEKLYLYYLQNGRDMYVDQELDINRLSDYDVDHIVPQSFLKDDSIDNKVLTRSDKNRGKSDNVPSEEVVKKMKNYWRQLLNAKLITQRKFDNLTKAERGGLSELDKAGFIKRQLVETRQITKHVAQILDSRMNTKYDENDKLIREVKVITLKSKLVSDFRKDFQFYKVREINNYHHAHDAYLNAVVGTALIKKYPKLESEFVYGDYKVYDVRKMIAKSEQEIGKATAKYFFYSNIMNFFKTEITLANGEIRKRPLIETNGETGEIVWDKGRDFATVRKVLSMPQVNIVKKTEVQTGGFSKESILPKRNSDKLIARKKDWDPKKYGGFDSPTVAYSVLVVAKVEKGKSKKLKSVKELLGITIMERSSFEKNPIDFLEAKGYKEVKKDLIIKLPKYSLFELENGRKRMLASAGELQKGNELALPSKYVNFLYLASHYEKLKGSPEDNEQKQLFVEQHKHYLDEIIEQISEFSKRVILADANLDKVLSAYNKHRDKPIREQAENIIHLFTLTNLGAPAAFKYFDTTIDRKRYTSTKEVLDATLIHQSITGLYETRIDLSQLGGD
T1 sequence (J7RUA5 whole entry): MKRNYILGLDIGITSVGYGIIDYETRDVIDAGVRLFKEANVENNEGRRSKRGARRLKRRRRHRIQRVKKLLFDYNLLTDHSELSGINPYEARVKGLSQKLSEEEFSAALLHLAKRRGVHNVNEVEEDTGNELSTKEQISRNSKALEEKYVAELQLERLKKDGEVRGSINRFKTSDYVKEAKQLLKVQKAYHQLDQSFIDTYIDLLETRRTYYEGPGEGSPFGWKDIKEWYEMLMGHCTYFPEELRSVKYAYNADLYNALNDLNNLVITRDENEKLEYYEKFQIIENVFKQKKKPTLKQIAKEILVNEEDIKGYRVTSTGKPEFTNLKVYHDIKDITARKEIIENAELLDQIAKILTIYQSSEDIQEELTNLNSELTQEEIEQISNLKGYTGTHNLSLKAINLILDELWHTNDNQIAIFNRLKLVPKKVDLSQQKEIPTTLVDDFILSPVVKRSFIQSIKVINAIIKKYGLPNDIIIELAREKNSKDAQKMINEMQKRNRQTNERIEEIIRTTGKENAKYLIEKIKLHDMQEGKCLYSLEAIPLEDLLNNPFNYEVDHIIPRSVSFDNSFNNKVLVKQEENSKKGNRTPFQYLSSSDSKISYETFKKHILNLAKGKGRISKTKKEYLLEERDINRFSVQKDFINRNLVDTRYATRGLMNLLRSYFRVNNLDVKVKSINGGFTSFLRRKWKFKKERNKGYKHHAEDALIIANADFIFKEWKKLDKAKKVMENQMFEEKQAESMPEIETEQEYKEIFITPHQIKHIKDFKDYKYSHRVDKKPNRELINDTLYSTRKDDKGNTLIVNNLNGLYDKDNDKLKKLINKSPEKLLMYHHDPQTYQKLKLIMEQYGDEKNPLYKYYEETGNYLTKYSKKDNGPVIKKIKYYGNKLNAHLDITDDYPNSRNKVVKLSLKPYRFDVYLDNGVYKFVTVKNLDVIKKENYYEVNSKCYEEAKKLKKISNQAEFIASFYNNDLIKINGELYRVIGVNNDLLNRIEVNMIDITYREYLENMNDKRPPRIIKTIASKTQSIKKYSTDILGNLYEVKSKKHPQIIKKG
T3 sequence (Q0P897 whole entry): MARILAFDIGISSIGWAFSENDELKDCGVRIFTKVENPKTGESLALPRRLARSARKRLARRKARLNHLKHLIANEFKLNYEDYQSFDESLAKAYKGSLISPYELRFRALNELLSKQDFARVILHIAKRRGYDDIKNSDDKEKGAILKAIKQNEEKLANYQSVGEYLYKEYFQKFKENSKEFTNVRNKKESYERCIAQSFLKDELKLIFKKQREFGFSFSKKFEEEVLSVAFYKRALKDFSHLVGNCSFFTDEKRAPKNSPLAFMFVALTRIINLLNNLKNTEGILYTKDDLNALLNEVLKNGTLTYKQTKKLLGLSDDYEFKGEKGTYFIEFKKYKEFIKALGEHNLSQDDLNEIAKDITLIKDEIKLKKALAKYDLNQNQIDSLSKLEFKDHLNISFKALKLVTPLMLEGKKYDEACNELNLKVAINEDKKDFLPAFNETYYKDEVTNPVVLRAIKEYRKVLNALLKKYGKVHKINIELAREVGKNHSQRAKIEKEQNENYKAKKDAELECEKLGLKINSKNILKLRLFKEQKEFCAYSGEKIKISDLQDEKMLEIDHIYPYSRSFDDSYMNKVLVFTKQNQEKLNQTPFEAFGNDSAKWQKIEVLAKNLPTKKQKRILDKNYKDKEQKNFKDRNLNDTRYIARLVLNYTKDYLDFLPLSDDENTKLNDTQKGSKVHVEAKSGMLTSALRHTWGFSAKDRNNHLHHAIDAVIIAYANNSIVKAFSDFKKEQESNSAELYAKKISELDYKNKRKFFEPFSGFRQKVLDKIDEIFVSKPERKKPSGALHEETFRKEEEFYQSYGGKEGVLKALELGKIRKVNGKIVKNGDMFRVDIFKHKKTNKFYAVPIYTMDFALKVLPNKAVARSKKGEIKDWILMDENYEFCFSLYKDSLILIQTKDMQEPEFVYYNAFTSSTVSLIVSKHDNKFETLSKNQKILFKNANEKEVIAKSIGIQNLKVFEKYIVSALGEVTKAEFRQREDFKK

| Sequence | IC50 [1] [µM] | IC50 [2] [µM] | IC50 [3] [µM] | mechanism subset: blocks Cas9 RNP binding to target DNA or other mechanism [4] | other results |
| --- | --- | --- | --- | --- | --- |
| DRSHKILLCYNGRNKRLLLRRL [Peptide 90-2-18] | 68.2 | 47.2 | 74.9 |  |  |
| GDPNSRRSHIARLLAMSLTWYS [Peptide 99-1-1] | 99.3 | 63.2 | 105 |  |  |
| LRQISNTSIVMGTTPSSVAVCG [Peptide 61] |  |  |  | inhibit CACs9 RNP cleavage by another mechanism |  |
| LNVKIENAHLTTNLSTMPLVLC [Peptide 63-2-87] | > 200 | > 200 | 90.9 |  |  |
| RLYHQCFLACLIDRQSPRNV [Peptide 73] |  |  |  | block Cas9 RNP binding to the target DNA | binding of SpyCas9 RNP to DNA substrate (beacon fluorescence) [4]: unaltered; also recorded: did not reduce substrate binding |
| DRSQKIFLRYNRCRYRLLQRGL [Peptide 90-1-18] | 58.4 | 48.4 | 73.6 |  |  |
| PNVKIGKAHLTTIMSTMPLIIC [Peptide 63-2-27] | 95.3 | 81.6 | > 200 |  |  |
| KERHRSLMRTTVKYYSLCLGGT [Peptide 82-2-12] | 69 | 35.3 | 87.1 |  |  |
| TESIRSYFAMTIRRNH [Peptide 80] |  |  |  | block Cas9 RNP binding to the target DNA |  |
| VSAYSADESLLIRRRRRRRRAG [Peptide 60-1-56] | 62.9 | 44.6 | 69.2 |  |  |
| RDPNSRRSHIARLLAMSLTWYS [Peptide 99-2-2] | 110 | 56.2 | > 200 |  |  |
| DGSLKILLRYNGCHYRLLQRSL [Peptide 90-3-50] | > 200 | 65.5 | > 200 |  |  |
| DRSHKILLRHSGCLYRFLQRYL [Peptide 90-2-5] | 91.3 | 86.5 | > 200 |  |  |
| LNVKIGNAHLTTIMSTMPLVLC [Peptide 63] |  |  |  | inhibit CACs9 RNP cleavage by another mechanism |  |
| RRSHIAWLLAMSLTWYS [Peptide 99] |  |  |  | block Cas9 RNP binding to the target DNA | activity of SauCas9 (% activity, FRET) ([1]; peptide 100 μM): significantly reduced activity; activity of SauCas9 (% activity, FRET) ([1]; peptide 200 μM): significantly reduced activity; binding of SpyCas9 RNP to DNA substrate (beacon fluorescence) [4]: significantly reduced; also recorded: reducing binding; activity of SpyCas9 (% activity, FRET) ([2]; peptide 100 μM): significantly reduced activity; activity of SpyCas9 (% activity, FRET) ([2]; peptide 200 μM): significantly reduced activity; activity of CjeCas9 (% activity, FRET) ([3]; peptide 100 μM): significantly reduced activity; activity of CjeCas9 (% activity, FRET) ([3]; peptide 200 μM): significantly reduced activity |
| RERRRSLIQISVKSYPLFLGGT [Peptide 82-2-28] | 153 | 72.5 | > 200 |  |  |
| KERRRSLMQLSVKSNSLFLGGT [Peptide 82] |  |  |  | inhibit CACs9 RNP cleavage by another mechanism |  |
